Data reported in ChEMBL document CHEMBL4346660, “Cryptolepine and aromathecin based mimics as potent G-quadruplex-binding, DNA-cleavage and anticancer agents: Design, synthesis and DNA targeting-induced apoptosis” (Eur J Med Chem, 2019).
The source made the active and inactive calls. The rule behind the calls is not given here.

Tests used:
MGC-803 [1] = assay: Antiproliferative activity against human MGC803 cells assessed as reduction in cell viability incubated for 48 hrs by MTT assay; format: functional, cell-based; conditions: MGC-803, 48 h
NCI-H460 = assay: Antiproliferative activity against human NCI-H460 cells assessed as reduction in cell viability incubated for 48 hrs by MTT assay; format: functional, cell-based; conditions: NCI-H460, 48 h
HepG2 = assay: Antiproliferative activity against human HepG2 cells assessed as reduction in cell viability incubated for 48 hrs by MTT assay; format: functional, cell-based; conditions: HepG2, 48 h
L02 = assay: Cytotoxicity against human HL7702 cells assessed as reduction in cell viability incubated for 48 hrs by MTT assay; format: cell-based; conditions: L02, 48 h
T-24 = assay: Antiproliferative activity against human T24 cells assessed as reduction in cell viability incubated for 48 hrs by MTT assay; format: functional, cell-based; conditions: T-24, 48 h
MGC-803 [2] = assay: Antitumor activity against human MGC803 cells xenografted in BALB/C mouse assessed as tumor growth inhibition at 6 mg/kg, ip administered every other day for 2 weeks measured during compound dosing relative to control; format: functional; conditions: MGC-803, ip, 336 h, read-out: TGI
DNA = assay: Binding affinity to Escherichia coli supercoiled pBR322 DNA assessed as DNA intercalation at 5 uM after 3 hrs by ethidium bromide staining-based agarose gel electrophoresis analysis; format: nucleic-acid assay

Row | Compound | IC50 (MGC-803 [1]) [nM] | IC50 (NCI-H460) [nM] | IC50 (HepG2) [nM] | IC50 (L02) [nM] | IC50 (T-24) [nM] | inhibition in vivo at 6 mg/kg (MGC-803 [2]) [%] | Activity (DNA)
1 | Fc1ccc2nc3c(c(NCCCN4CCOCC4)c2c1)Cc1ccccc1-3 | 2790 | 6660 | 4460 | 3050 | 1900 | – | –
2 | COc1cc2c(cc1OC)-c1nc3ccc(F)cc3c(NCCN(C)C)c1C2 | 2350 | 5730 | 1770 | 4380 | 2200 | – | –
3 | COc1cc2c(cc1OC)-c1nc3ccc(Cl)cc3c(NCCCN(C)C)c1C2 | 1580 | 1950 | 4180 | 2600 | 2090 | – | –
4 | COc1cc2c(cc1OC)-c1nc3ccc(Br)cc3c(NCCCN(C)C)c1C2 | 3660 | 5730 | 6380 | 7060 | 4970 | – | –
5 | COc1cc2c(cc1OC)-c1nc3ccc(Cl)cc3c(NCCN(C)C)c1C2 | 2220 | 2550 | 3120 | 2560 | 2210 | – | –
6 | COc1cc2c(cc1OC)-c1nc3ccc(Cl)cc3c(NCCCN3CCOCC3)c1C2 | 4130 | 2400 | 7600 | 3800 | 2230 | – | –
7 | Cc1ccc2nc3c(c(NCCN(C)C)c2c1)Cc1ccccc1-3 | 920 | 1030 | 1710 | 1150 | 310 | – | –
8 | COc1cc2c(cc1OC)-c1nc3ccc(C)cc3c(NCCCN3CCOCC3)c1C2 | 3500 | 5640 | 7460 | 7720 | 4620 | – | –
9 | CN(C)CCCNc1c2c(nc3ccc(Br)cc13)-c1ccccc1C2 | 1800 | 2020 | 3120 | 1640 | 1360 | – | –
10 | COc1cc2c(cc1OC)-c1nc3ccccc3c(NCCCN3CCOCC3)c1C2 | 2520 | 5000 | 3940 | 4970 | 2770 | – | –
11 | CN(C)CCNc1c2c(nc3ccc(Br)cc13)-c1ccccc1C2 | 2980 | 2800 | 4180 | 6430 | 2210 | – | –
12 | Clc1ccc2nc3c(c(NCCCN4CCOCC4)c2c1)Cc1ccccc1-3 | 6890 | 5210 | 5900 | 7120 | 4320 | – | –
13 | COc1cc2c(cc1OC)-c1nc3ccc(F)cc3c(NCCCN(C)C)c1C2 | 2110 | 3520 | 5230 | 3070 | 2860 | – | –
14 | CN(C)CCCNc1c2c(nc3ccc(Cl)cc13)-c1ccccc1C2 | 1110 | 2310 | 2140 | 2300 | 910 | – | –
15 | COc1cc2c(cc1OC)-c1nc3ccc(C)cc3c(NCCN(C)C)c1C2 | 2460 | 4990 | 2570 | 3010 | 2390 | – | –
16 | CC[C@@]1(O)C(=O)OCc2c1cc1n(c2=O)Cc2cc3ccccc3nc2-1 [CAMPTOTHECIN] | 4270 | 5370 | 5690 | 2150 | 3090 | 62.3 | –

Row | Compound | IC50 (MGC-803 [1]) [nM] | IC50 (NCI-H460) [nM] | IC50 (HepG2) [nM] | IC50 (L02) [nM] | IC50 (T-24) [nM] | inhibition in vivo at 6 mg/kg (MGC-803 [2]) [%] | Activity (DNA)
17 | c1ccc2c(c1)Cc1c-2nc2ccccc2c1NCCCN1CCOCC1 | 1950 | 4600 | 4480 | 4730 | 1430 | – | –
18 | CN(C)CCNc1c2c(nc3ccc(Cl)cc13)-c1ccccc1C2 | 3490 | 4960 | 6710 | 3600 | 1740 | – | –
19 | COc1cc2c(cc1OC)-c1nc3ccc(Br)cc3c(NCCCN3CCOCC3)c1C2 | 3380 | 4250 | 3970 | 5020 | 2640 | – | –
20 | Brc1ccc2nc3c(c(NCCCN4CCOCC4)c2c1)Cc1ccccc1-3 | 7500 | 8570 | 6320 | 5710 | 9410 | – | –
21 | COc1cc2c(cc1OC)-c1nc3ccccc3c(NCCCN(C)C)c1C2 | 5170 | 3920 | 4600 | 4350 | 2470 | – | –
22 | CN(C)CCNc1c2c(nc3ccc(F)cc13)-c1ccccc1C2 | 1780 | 2890 | 2590 | 3220 | 1150 | – | –
23 | CC[n+]1c(-c2ccccc2)c2cc(N)ccc2c2ccc(N)cc21 | – | – | – | – | – | – | Active
24 | Cc1ccc2nc3c(c(NCCCN(C)C)c2c1)Cc1ccccc1-3 | 860 | 1160 | 1190 | 580 | 840 | – | –
25 | COc1cc2c(cc1OC)-c1nc3ccc(C)cc3c(NCCCN(C)C)c1C2 | 5080 | 5520 | 12000 | 4940 | 4640 | – | –
26 | Cc1ccc2nc3c(c(NCCCN4CCOCC4)c2c1)Cc1ccccc1-3 | 1420 | 890 | 1880 | 1670 | 580 | – | –
27 | CN(C)CCCNc1c2c(nc3ccccc13)-c1ccccc1C2 | 950 | 1660 | 2600 | 910 | 310 | – | –
28 | COc1cc2c(cc1OC)-c1nc3ccccc3c(NCCN(C)C)c1C2 | 1360 | 3100 | 3140 | 2060 | 1820 | – | –
29 | CN(C)CCNc1c2c(nc3ccccc13)-c1ccccc1C2 | 930 | 1230 | 2310 | 1310 | 610 | – | –
30 | COc1cc2c(cc1OC)-c1nc3ccc(F)cc3c(NCCCN3CCOCC3)c1C2 | 3700 | 6420 | 8740 | 3710 | 3740 | – | –
31 | COc1cc2c(cc1OC)-c1nc3ccc(Br)cc3c(NCCN(C)C)c1C2 | 2730 | 2830 | 1610 | 6950 | 1530 | – | –
